# Results as given in patent publication US20240408169A1 (priority 2023, published 2024).
# pIC50: −log10 of the molar value. Like-named read-outs stand apart in the source and are kept apart here. *1 amine or outer side, *2 acyl side, *3 side chain or, on linkers, in order; H or OH if unused. Where a SMILES comes first, the peptide text is derived from it. Bridges are numbered along the chain shown (N, C = ends). [ ]: non-standard residue; d: D form. The star is where a group is joined. X148 = CN([C@@H](Cc1cc(Cl)ccc1-c1ccc(S(C)(=O)=O)nc1)C(=O)[*:2])[*:1]; X197 = CN([C@@H](Cc1cc(Cl)ccc1-c1ccc(=O)[nH]c1)C(=O)[*:2])[*:1]; X203 = CN([C@@H](Cc1cc(Cl)ccc1-c1cnn(C(F)F)c1)C(=O)[*:2])[*:1]; X123 = CN([C@@H](Cc1cc(Cl)ccc1-c1ccc[nH]c1=O)C(=O)[*:2])[*:1]; X147 = CCSc1ccc(-c2ccc(Cl)cc2C[C@@H](C(=O)[*:2])N(C)[*:1])cn1; X158 = CCOc1ccc(-c2ccc(Cl)cc2C[C@@H](C(=O)[*:2])N(C)[*:1])cn1; X170 = CN([C@@H](Cc1cc(Cl)ccc1-c1ccc2nonc2c1)C(=O)[*:2])[*:1]; X183 = CN([C@@H](Cc1cc(Cl)ccc1-c1ccc2nncn2c1)C(=O)[*:2])[*:1]; X193 = CN([C@@H](Cc1cc(Cl)ccc1-c1cnc2nonc2c1)C(=O)[*:2])[*:1]; X162 = COc1cncc(-c2ccc(Cl)cc2C[C@@H](C(=O)[*:2])N(C)[*:1])c1; X192 = COc1cccc(-c2ccc(Cl)cc2C[C@@H](C(=O)[*:2])N(C)[*:1])c1; NMehhhLys(Me) = CN([C@@H](CCCCCCCN(C)[*:3])C(=O)[*:2])[*:1]; X125 = CN([C@@H](Cc1cc(Cl)ccc1-c1cncc(F)c1)C(=O)[*:2])[*:1]; X139 = Cc1[nH]ncc1-c1ccc(Cl)cc1C[C@@H](C(=O)[*:2])N(C)[*:1]; X168 = Cc1ncc(-c2ccc(Cl)cc2C[C@@H](C(=O)[*:2])N(C)[*:1])o1; X188 = CN([C@@H](Cc1cc(Cl)ccc1-c1ccn(C)n1)C(=O)[*:2])[*:1]; X22 = CN([C@@H](Cc1cc(Cl)ccc1-c1cnn(C)c1)C(=O)[*:2])[*:1]; X199 = CN([C@@H](Cc1cc(Cl)ccc1C1=CCOC1)C(=O)[*:2])[*:1]; cBuCO(3,3-F2-1-CF3) = O=C(C1(C(F)(F)F)CC(F)(F)C1)*; Pro(trans-4-F) = O=C(O)[C@@H]1C[C@@H](F)CN1; Pivaloyl(3,3,3-F3) = CC(C)(C(=O)*)C(F)(F)F; Gly(cPr) = N[C@H](C(=O)O)C1CC1
# Assays:
# OVCAR3 cells = assay: MTT proliferation assay, OVCAR3; type: cell-based; conditions: 5 days compound exposure, 1:3 serial dilution starting at 10 μM;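 note: compound given as an 8- or 10-point series, one day after plating, with exposure covering roughly 3-4 cell doublings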
# NCI-H1048 cells = assay: MTT proliferation assay, NCI-H1048; type: cell-based; conditions: 5 days compound exposure, 1:3 serial dilution starting at 10 μM;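 note: Dose-response in 96-well plates over 8 or 10 concentration points, with exposure spanning 3-4 cell doublings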
# CyclinE1/CDK2 = target: T1, CyclinE1/CDK2 (Homo sapiens, UniProt P24864); assay: Fluorescence Polarization (FP) competitive binding assay, Cyclin E1/Cdk2;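 note: readings taken after two-hour equilibration at room temperature in HEPES buffer with NaCl, DTT, NP-40 and BSA, IC50 fitted from eight-concentration serial dilution series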
# T1 construct: purchased Eurofins, discovery 14-475
# CyclinA2/CDK2 = target: T2, CyclinA2/CDK2 (Homo sapiens, UniProt P20248); assay: Fluorescence Polarization (FP) competitive binding assay, Cyclin A2/Cdk2;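 note: plates equilibrated two hours at room temperature before polarization reading, IC50 fitted from eight-concentration compound titration curves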
# T2 construct: purchased CRELUX Protein Services
# CyclinB1/CDK1 = target: T3, CyclinB1/CDK1 (Homo sapiens, UniProt P14635); assay: Fluorescence Polarization (FP) competitive binding assay, Cyclin B1/Cdk1;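 note: fluorescence polarization read after equilibration at room temperature, with IC50 taken from serially diluted dose-response curves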
# T3 construct: purchased Eurofins, discovery 14-450
# [1] = 10 nM Cyclin E1/Cdk2, 2 nM FAM probe, average of 2-3 independent experiments, read-out: Cyclin E FP IC50
# [2] = 8 nM Cyclin A2/Cdk2, 2 nM FAM probe, average of 2-3 independent experiments, read-out: Cyclin A FP IC50
# [3] = 10 nM Cyclin B1/Cdk1, 2 nM FAM probe; average of 2-3 independent experiments; read-out: Cyclin B FP IC50
# [4] = read-out: Cyclin B FP IC50; 10 nM Cyclin B1/Cdk1, 2 nM FAM probe; average of 2-3 independent experiments
# [5] = read-out: Cyclin A FP IC50, 8 nM Cyclin A2/Cdk2, 2 nM FAM probe, average of 2-3 independent experiments
Compound,GI50 (OVCAR3 cells),GI50 (NCI-H1048 cells),pIC50 (CyclinE1/CDK2; [1]),pIC50 (CyclinA2/CDK2; [2]),pIC50 (CyclinB1/CDK1; [3]),pIC50 (CyclinE1/CDK2),pIC50 (CyclinA2/CDK2),pIC50 (CyclinB1/CDK1; [4]),pIC50 (CyclinA2/CDK2; [5])
"CC(C)C[C@@H]1NC(=O)[C@@H](N(C)C(=O)[C@@H](NC(=O)[C@@H]2C[C@@H](F)CN2C(=O)C2(C(F)(F)F)CC(F)(F)C2)C2CC2)CCCCCCCN(C)C(=O)[C@H](Cc2cc(Cl)ccc2-c2ccc3nonc3c2)N(C)C1=O [Example 170] ({cBuCO(3,3-F2-1-CF3)}-[Pro(trans-4-F)][Gly(cPr)][NMehhhLys(Me)]L[X170]; lactam 3-C)",0.2 µM,0.13 µM,5.65,7.30,7.70,–,–,–,–
"CC(C)C[C@@H]1NC(=O)[C@@H](N(C)C(=O)[C@@H](NC(=O)[C@@H]2C[C@@H](F)CN2C(=O)C2(C(F)(F)F)CC(F)(F)C2)C2CC2)CCCCCCCN(C)C(=O)[C@H](Cc2cc(Cl)ccc2-c2cnc3nonc3c2)N(C)C1=O [Example 171] ({cBuCO(3,3-F2-1-CF3)}-[Pro(trans-4-F)][Gly(cPr)][NMehhhLys(Me)]L[X193]; lactam 3-C)",0.21 µM,0.15 µM,5.38,7.10,7.70,–,–,–,–
"CC(C)C[C@@H]1NC(=O)[C@@H](N(C)C(=O)[C@@H](NC(=O)[C@@H]2C[C@@H](F)CN2C(=O)C2(C(F)(F)F)CC(F)(F)C2)C2CC2)CCCCCCCN(C)C(=O)[C@H](Cc2cc(Cl)ccc2-c2ccc3nncn3c2)N(C)C1=O [Example 178] ({cBuCO(3,3-F2-1-CF3)}-[Pro(trans-4-F)][Gly(cPr)][NMehhhLys(Me)]L[X183]; lactam 3-C)",2.57 µM,1.18 µM,5.26,7.30,7.70,–,–,–,–
"CC(C)C[C@@H]1NC(=O)[C@@H](N(C)C(=O)[C@@H](NC(=O)[C@@H]2C[C@@H](F)CN2C(=O)C2(C(F)(F)F)CC(F)(F)C2)C2CC2)CCCCCCCN(C)C(=O)[C@H](Cc2cc(Cl)ccc2-c2ccc(=O)[nH]c2)N(C)C1=O [Example 180] ({cBuCO(3,3-F2-1-CF3)}-[Pro(trans-4-F)][Gly(cPr)][NMehhhLys(Me)]L[X197]; lactam 3-C)",1.22 µM,0.73 µM,5.73,7.52,7.70,–,–,–,–
"CCSc1ccc(-c2ccc(Cl)cc2C[C@H]2C(=O)N(C)CCCCCCC[C@H](N(C)C(=O)[C@@H](NC(=O)[C@@H]3C[C@@H](F)CN3C(=O)C3(C(F)(F)F)CC(F)(F)C3)C3CC3)C(=O)N[C@@H](CC(C)C)C(=O)N2C)cn1 [Example 181] ({cBuCO(3,3-F2-1-CF3)}-[Pro(trans-4-F)][Gly(cPr)][NMehhhLys(Me)]L[X147]; lactam 3-C)",0.42 µM,0.24 µM,5.80,7.40,7.70,–,–,–,–
"CCOc1ccc(-c2ccc(Cl)cc2C[C@H]2C(=O)N(C)CCCCCCC[C@H](N(C)C(=O)[C@@H](NC(=O)[C@@H]3C[C@@H](F)CN3C(=O)C3(C(F)(F)F)CC(F)(F)C3)C3CC3)C(=O)N[C@@H](CC(C)C)C(=O)N2C)cn1 [Example 182] ({cBuCO(3,3-F2-1-CF3)}-[Pro(trans-4-F)][Gly(cPr)][NMehhhLys(Me)]L[X158]; lactam 3-C)",0.13 µM,0.06 µM,5.93,7.70,7.70,–,–,–,–
CC(C)C[C@@H]1NC(=O)[C@@H](N(C)C(=O)[C@@H](NC(=O)[C@@H]2C[C@@H](F)CN2C(=O)C2(C(F)(F)F)CC(F)(F)C2)C2CC2)CC=CCCCCNC(=O)[C@H](Cc2cc(F)ccc2-c2cnn(C)c2)N(C)C1=O [Example 195],0.01 µM,0.01 µM,6.74,7.40,7.70,–,–,–,–
"COc1cccc(-c2ccc(Cl)cc2C[C@H]2C(=O)N(C)CCCCCCC[C@H](N(C)C(=O)[C@@H](NC(=O)[C@@H]3C[C@@H](F)CN3C(=O)C3(C(F)(F)F)CC(F)(F)C3)C3CC3)C(=O)N[C@@H](CC(C)C)C(=O)N2C)c1 [Example 197] ({cBuCO(3,3-F2-1-CF3)}-[Pro(trans-4-F)][Gly(cPr)][NMehhhLys(Me)]L[X192]; lactam 3-C)",0.1 µM,0.05 µM,6.51,7.70,7.70,–,–,–,–
"CC(C)C[C@@H]1NC(=O)[C@@H](N(C)C(=O)[C@@H](NC(=O)[C@@H]2C[C@@H](F)CN2C(=O)C2(C(F)(F)F)CC(F)(F)C2)C2CC2)CCCCCCCN(C)C(=O)[C@H](Cc2cc(Cl)ccc2-c2cncc(F)c2)N(C)C1=O [Example 198] ({cBuCO(3,3-F2-1-CF3)}-[Pro(trans-4-F)][Gly(cPr)][NMehhhLys(Me)]L[X125]; lactam 3-C)",0.05 µM,0.05 µM,5.84,7.30,7.70,–,–,–,–
"COc1cncc(-c2ccc(Cl)cc2C[C@H]2C(=O)N(C)CCCCCCC[C@H](N(C)C(=O)[C@@H](NC(=O)[C@@H]3C[C@@H](F)CN3C(=O)C3(C(F)(F)F)CC(F)(F)C3)C3CC3)C(=O)N[C@@H](CC(C)C)C(=O)N2C)c1 [Example 199] ({cBuCO(3,3-F2-1-CF3)}-[Pro(trans-4-F)][Gly(cPr)][NMehhhLys(Me)]L[X162]; lactam 3-C)",0.05 µM,0.03 µM,6.04,7.52,7.70,–,–,–,–
"CC(C)C[C@@H]1NC(=O)[C@@H](N(C)C(=O)[C@@H](NC(=O)[C@@H]2C[C@@H](F)CN2C(=O)C2(C(F)(F)F)CC(F)(F)C2)C2CC2)CCCCCCCN(C)C(=O)[C@H](Cc2cc(Cl)ccc2-c2cnn(C(F)F)c2)N(C)C1=O [Example 200] ({cBuCO(3,3-F2-1-CF3)}-[Pro(trans-4-F)][Gly(cPr)][NMehhhLys(Me)]L[X203]; lactam 3-C)",0.03 µM,0.04 µM,6.05,7.52,7.70,–,–,–,–
"CC(C)C[C@@H]1NC(=O)[C@@H](N(C)C(=O)[C@@H](NC(=O)[C@@H]2C[C@@H](F)CN2C(=O)C2(C(F)(F)F)CC(F)(F)C2)C2CC2)CCCCCCCN(C)C(=O)[C@H](Cc2cc(Cl)ccc2-c2ccc(S(C)(=O)=O)nc2)N(C)C1=O [Example 201] ({cBuCO(3,3-F2-1-CF3)}-[Pro(trans-4-F)][Gly(cPr)][NMehhhLys(Me)]L[X148]; lactam 3-C)",0.06 µM,0.06 µM,–,–,–,5.71,7.52,7.70,–
"CC(C)C[C@@H]1NC(=O)[C@@H](N(C)C(=O)[C@@H](NC(=O)[C@@H]2C[C@@H](F)CN2C(=O)C(C)(C)C(F)(F)F)C2CC2)CCCCCCCN(C)C(=O)[C@H](Cc2cc(Cl)ccc2-c2cnn(C)c2)N(C)C1=O [Example 204] ({Pivaloyl(3,3,3-F3)}-[Pro(trans-4-F)][Gly(cPr)][NMehhhLys(Me)]L[X22]; lactam 3-C)",0.01 µM,0.01 µM,–,–,–,6.80,–,7.70,7.70
"CC(C)C[C@@H]1NC(=O)[C@@H](N(C)C(=O)[C@@H](NC(=O)[C@@H]2C[C@@H](F)CN2C(=O)C2(C(F)(F)F)CC(F)(F)C2)C2CC2)CCCCCCCN(C)C(=O)[C@H](Cc2cc(Cl)ccc2-c2ccn(C)n2)N(C)C1=O [Example 205] ({cBuCO(3,3-F2-1-CF3)}-[Pro(trans-4-F)][Gly(cPr)][NMehhhLys(Me)]L[X188]; lactam 3-C)",0.03 µM,0.02 µM,–,–,–,6.32,7.52,7.70,–
"Cc1ncc(-c2ccc(Cl)cc2C[C@H]2C(=O)N(C)CCCCCCC[C@H](N(C)C(=O)[C@@H](NC(=O)[C@@H]3C[C@@H](F)CN3C(=O)C3(C(F)(F)F)CC(F)(F)C3)C3CC3)C(=O)N[C@@H](CC(C)C)C(=O)N2C)o1 [Example 206] ({cBuCO(3,3-F2-1-CF3)}-[Pro(trans-4-F)][Gly(cPr)][NMehhhLys(Me)]L[X168]; lactam 3-C)",0.02 µM,0.01 µM,–,–,–,6.70,–,7.70,7.70
"CC(C)C[C@@H]1NC(=O)[C@@H](N(C)C(=O)[C@@H](NC(=O)[C@@H]2C[C@@H](F)CN2C(=O)C2(C(F)(F)F)CC(F)(F)C2)C2CC2)CCCCCCCN(C)C(=O)[C@H](Cc2cc(Cl)ccc2-c2ccc[nH]c2=O)N(C)C1=O [Example 208] ({cBuCO(3,3-F2-1-CF3)}-[Pro(trans-4-F)][Gly(cPr)][NMehhhLys(Me)]L[X123]; lactam 3-C)",1.96 µM,0.83 µM,–,–,–,5.19,6.68,7.70,–
"CC(C)C[C@@H]1NC(=O)[C@@H](N(C)C(=O)[C@@H](NC(=O)[C@@H]2C[C@@H](F)CN2C(=O)C2(C(F)(F)F)CC(F)(F)C2)C2CC2)CCCCCCCN(C)C(=O)[C@H](Cc2cc(Cl)ccc2C2=CCOC2)N(C)C1=O [Example 209] ({cBuCO(3,3-F2-1-CF3)}-[Pro(trans-4-F)][Gly(cPr)][NMehhhLys(Me)]L[X199]; lactam 3-C)",0.02 µM,0.01 µM,–,–,–,6.27,–,7.70,7.70
"Cc1[nH]ncc1-c1ccc(Cl)cc1C[C@H]1C(=O)N(C)CCCCCCC[C@H](N(C)C(=O)[C@@H](NC(=O)[C@@H]2C[C@@H](F)CN2C(=O)C2(C(F)(F)F)CC(F)(F)C2)C2CC2)C(=O)N[C@@H](CC(C)C)C(=O)N1C [Example 211] ({cBuCO(3,3-F2-1-CF3)}-[Pro(trans-4-F)][Gly(cPr)][NMehhhLys(Me)]L[X139]; lactam 3-C)",0.03 µM,0.02 µM,–,–,–,5.95,7.30,7.70,–
